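Tested at 5 concentrations; 48 h exposure; 96-well plates; endpoints linearly interpolated, else capped at highest concentration. The concentration for full growth arrest is given as TGI.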
What was measured:
Assay in all cases: inhibition of tumour cell growth, NCI panel, 48 h
SNB-19 CNS = system: SNB-19 CNS
HL-60(TB) leukemia = system: HL-60(TB) leukemia
OVCAR-4 ovarian = system: OVCAR-4 ovarian
EKVX NSCLC = system: EKVX NSCLC
M19-MEL melanoma = system: M19-MEL melanoma
HCT-15 colon = system: HCT-15 colon
SF-539 CNS = system: SF-539 CNS
CAKI-1 renal = system: CAKI-1 renal
SF-295 CNS = system: SF-295 CNS
MALME-3M melanoma = system: MALME-3M melanoma
LXFL 529 NSCLC = system: LXFL 529 NSCLC
RPMI-8226 leukemia = system: RPMI-8226 leukemia
SK-MEL-2 melanoma = system: SK-MEL-2 melanoma
HOP-92 NSCLC = system: HOP-92 NSCLC
NCI-H226 lung = system: NCI-H226 lung
786-0 renal = system: 786-0 renal
OVCAR-8 ovarian = system: OVCAR-8 ovarian
IGROV1 ovarian = system: IGROV1 ovarian
SR leukemia = system: SR leukemia
HOP-18 NSCLC = system: HOP-18 NSCLC
A549 NSCLC = system: A549 NSCLC
KM12 colon = system: KM12 colon
KM20L2 colon = system: KM20L2 colon
TK-10 renal = system: TK-10 renal
RXF 393 renal = system: RXF 393 renal
DMS 114 small cell lung = system: DMS 114 small cell lung
HOP-62 NSCLC = system: HOP-62 NSCLC
A498 renal = system: A498 renal
UACC-62 melanoma = system: UACC-62 melanoma
HCT-116 colon = system: HCT-116 colon
XF 498 CNS = system: XF 498 CNS
COLO 205 colon = system: COLO 205 colon
SW-620 colon = system: SW-620 colon
CCRF-CEM leukemia = system: CCRF-CEM leukemia
ACHN renal = system: ACHN renal
SK-MEL-28 melanoma = system: SK-MEL-28 melanoma
OVCAR-3 ovarian = system: OVCAR-3 ovarian
SNB-78 CNS = system: SNB-78 CNS
MOLT-4 leukemia = system: MOLT-4 leukemia
SN12C renal = system: SN12C renal
M14 melanoma = system: M14 melanoma
U251 CNS = system: U251 CNS
SNB-75 CNS = system: SNB-75 CNS
K-562 leukemia = system: K-562 leukemia
UO-31 renal = system: UO-31 renal
HCC-2998 colon = system: HCC-2998 colon
NCI-H460 lung = system: NCI-H460 lung
HT29 colon = system: HT29 colon
DMS 273 small cell lung = system: DMS 273 small cell lung
NCI-H23 lung = system: NCI-H23 lung
SK-MEL-5 melanoma = system: SK-MEL-5 melanoma
LOX IMVI melanoma = system: LOX IMVI melanoma
SK-OV-3 ovarian = system: SK-OV-3 ovarian
DLD-1 colon = system: DLD-1 colon
NCI-H522 lung = system: NCI-H522 lung
SF-268 CNS = system: SF-268 CNS
UACC-257 melanoma = system: UACC-257 melanoma

Compound `CCC12C=CCN3CCC4(c5cc(C6(C(=O)OC)CCCCCc7c6[nH]c6ccccc76)c(OC)cc5N(C)C4C(O)(C(=O)OC)C1OC(C)=O)C32` (centres undefined) has a TGI (SNB-19 CNS) of 12.1 µM, a TGI (HL-60(TB) leukemia) of 5.81 µM and a TGI (OVCAR-4 ovarian) of 12.3 µM. The TGI (EKVX NSCLC) was 14 µM, the TGI (M19-MEL melanoma) was 6.93 µM and the TGI (HCT-15 colon) was 5.29 µM. The TGI (SF-539 CNS) was 4.63 µM, the TGI (CAKI-1 renal) was 7.46 µM and the TGI (SF-295 CNS) was 5.3 µM. For the same compound, the TGI (MALME-3M melanoma) was 3.84 µM, the TGI (LXFL 529 NSCLC) was 5.54 µM and the TGI (RPMI-8226 leukemia) was 6.97 µM. For the same compound, the TGI (SK-MEL-2 melanoma) was 3.17 µM, the TGI (HOP-92 NSCLC) was 4.76 µM and the TGI (NCI-H226 lung) was 6.65 µM. It also gave a TGI (786-0 renal) of 4.89 µM, a TGI (OVCAR-8 ovarian) of 17.2 µM and a TGI (IGROV1 ovarian) of 5.23 µM. The TGI (SR leukemia) was 7.65 µM, the TGI (HOP-18 NSCLC) was 4.86 µM and the TGI (A549 NSCLC) was 11.7 µM. The TGI (KM12 colon) was 5.93 µM, the TGI (KM20L2 colon) was 4.76 µM and the TGI (TK-10 renal) was 5.5 µM. The TGI (RXF 393 renal) was 3.52 µM, the TGI (DMS 114 small cell lung) was 7.09 µM and the TGI (HOP-62 NSCLC) was 13.2 µM. The TGI (A498 renal) was 7.39 µM, the TGI (UACC-62 melanoma) was 3.43 µM and the TGI (HCT-116 colon) was 13 µM. It also gave a TGI (XF 498 CNS) of 6.44 µM, a TGI (COLO 205 colon) of 8.85 µM and a TGI (SW-620 colon) of 17.5 µM. It also gave a TGI (CCRF-CEM leukemia) of 5.49 µM, a TGI (ACHN renal) of 3.3 µM and a TGI (SK-MEL-28 melanoma) of 4.35 µM. It also gave a TGI (OVCAR-3 ovarian) of 15.5 µM, a TGI (SNB-78 CNS) of 9.48 µM and a TGI (MOLT-4 leukemia) of 9.19 µM. For the same compound, the TGI (SN12C renal) was 12.8 µM, the TGI (M14 melanoma) was 6.75 µM and the TGI (U251 CNS) was 5.68 µM. For the same compound, the TGI (SNB-75 CNS) was 7.8 µM, the TGI (K-562 leukemia) was over 100 µM and the TGI (UO-31 renal) was 7.25 µM. For the same compound, the TGI (HCC-2998 colon) was 3.97 µM, the TGI (NCI-H460 lung) was 9.92 µM and the TGI (HT29 colon) was 2.06 µM.
In the case of `Cc1ccccc1NC(=O)C(=O)c1c(O)c2ccc(O)cc2oc1=O`, the TGI (SNB-19 CNS) is reported as over 100 µM, the TGI (DMS 273 small cell lung) is reported as over 100 µM and the TGI (HL-60(TB) leukemia) is reported as over 100 µM. It also gave a TGI (OVCAR-4 ovarian) of over 100 µM, a TGI (NCI-H23 lung) of over 100 µM and a TGI (M19-MEL melanoma) of over 100 µM. The TGI (SK-MEL-5 melanoma) was over 100 µM, the TGI (HCT-15 colon) was over 100 µM and the TGI (CAKI-1 renal) was over 100 µM. The TGI (MALME-3M melanoma) was over 100 µM, the TGI (LOX IMVI melanoma) was over 100 µM and the TGI (SK-OV-3 ovarian) was over 100 µM. It also gave a TGI (LXFL 529 NSCLC) of over 100 µM, a TGI (RPMI-8226 leukemia) of over 100 µM and a TGI (SK-MEL-2 melanoma) of over 100 µM. It also gave a TGI (HOP-92 NSCLC) of over 100 µM, a TGI (NCI-H226 lung) of over 100 µM and a TGI (786-0 renal) of over 100 µM. It also gave a TGI (OVCAR-8 ovarian) of over 100 µM, a TGI (DLD-1 colon) of over 100 µM and a TGI (IGROV1 ovarian) of over 100 µM. It also gave a TGI (HOP-18 NSCLC) of over 100 µM, a TGI (A549 NSCLC) of over 100 µM and a TGI (KM12 colon) of over 100 µM. It also gave a TGI (KM20L2 colon) of over 100 µM, a TGI (NCI-H522 lung) of over 100 µM and a TGI (TK-10 renal) of over 100 µM. The TGI (RXF 393 renal) was over 100 µM, the TGI (DMS 114 small cell lung) was over 100 µM and the TGI (HOP-62 NSCLC) was over 100 µM. The TGI (A498 renal) was over 100 µM, the TGI (UACC-62 melanoma) was over 100 µM and the TGI (HCT-116 colon) was over 100 µM. It also gave a TGI (XF 498 CNS) of over 100 µM, a TGI (COLO 205 colon) of over 100 µM and a TGI (SW-620 colon) of over 100 µM. For the same compound, the TGI (CCRF-CEM leukemia) was over 100 µM, the TGI (SF-268 CNS) was over 100 µM and the TGI (ACHN renal) was over 100 µM. It also gave a TGI (SK-MEL-28 melanoma) of over 100 µM, a TGI (OVCAR-3 ovarian) of over 100 µM and a TGI (MOLT-4 leukemia) of over 100 µM. The TGI (SN12C renal) was over 100 µM, the TGI (M14 melanoma) was over 100 µM and the TGI (U251 CNS) was over 100 µM. For the same compound, the TGI (SNB-75 CNS) was over 100 µM, the TGI (UACC-257 melanoma) was over 100 µM and the TGI (K-562 leukemia) was over 100 µM. It also gave a TGI (UO-31 renal) of over 100 µM, a TGI (NCI-H460 lung) of over 100 µM and a TGI (HT29 colon) of over 100 µM.

— PubChem BioAssay (NCI)
